# Measurements from US6291449A, “Use of 11-phenyl-dibenzazepine compounds to treat diarrhea or scours” (Children's Medical Center Corporation, priority 1998, dated 2001).
# Read-outs that look alike come from different tables or passages of the source.
# Columns and labels:
# [1] = test system: T84 cells; assay: Electrogenic Cl- secretion (short circuit current) in intact T84 monolayers; type: cell-based, human; design: inhibition of Cl- secretory response to carbachol (Isc): dose or concentration left out as unconfirmed; settings: for inhibition of chloride secretion: T84 cells
# [2] = test system: basolateral K+ channels; assay: K+ transport/conductance of basolateral membrane in apically permeabilized T84 monolayers; settings: for increases in Isc and G in absence of K+: Na+ as sole permeant cation, 135 mM gradient; for effect on K+ transport (Isc and G): forskolin 10 μM, 135 mM K+ gradient; for duration of agonist-induced changes in Isc: permeabilized T84 monolayers; for activation of currents at positive transepithelial voltages: basolaterally directed K+ gradient
# [3] = test system: rabbit colonic mucosa; assay: Ussing chamber studies using rabbit colonic mucosa; design: species or system rabbit (New Zealand)
# [4] = test system: basolateral K+ channel; assay: 86Rb efflux from T84 monolayers (K+ channel activity); type: cell-based, human
# [5] = molecular target: T1, basolateral NaK2Cl cotransporters (Homo sapiens, UniProt P55011); assay: 86Rb uptake in T84 monolayers (bumetanide-sensitive NaK2Cl cotransport); type: cell-based
# T1 sequence (P55011 1-1212): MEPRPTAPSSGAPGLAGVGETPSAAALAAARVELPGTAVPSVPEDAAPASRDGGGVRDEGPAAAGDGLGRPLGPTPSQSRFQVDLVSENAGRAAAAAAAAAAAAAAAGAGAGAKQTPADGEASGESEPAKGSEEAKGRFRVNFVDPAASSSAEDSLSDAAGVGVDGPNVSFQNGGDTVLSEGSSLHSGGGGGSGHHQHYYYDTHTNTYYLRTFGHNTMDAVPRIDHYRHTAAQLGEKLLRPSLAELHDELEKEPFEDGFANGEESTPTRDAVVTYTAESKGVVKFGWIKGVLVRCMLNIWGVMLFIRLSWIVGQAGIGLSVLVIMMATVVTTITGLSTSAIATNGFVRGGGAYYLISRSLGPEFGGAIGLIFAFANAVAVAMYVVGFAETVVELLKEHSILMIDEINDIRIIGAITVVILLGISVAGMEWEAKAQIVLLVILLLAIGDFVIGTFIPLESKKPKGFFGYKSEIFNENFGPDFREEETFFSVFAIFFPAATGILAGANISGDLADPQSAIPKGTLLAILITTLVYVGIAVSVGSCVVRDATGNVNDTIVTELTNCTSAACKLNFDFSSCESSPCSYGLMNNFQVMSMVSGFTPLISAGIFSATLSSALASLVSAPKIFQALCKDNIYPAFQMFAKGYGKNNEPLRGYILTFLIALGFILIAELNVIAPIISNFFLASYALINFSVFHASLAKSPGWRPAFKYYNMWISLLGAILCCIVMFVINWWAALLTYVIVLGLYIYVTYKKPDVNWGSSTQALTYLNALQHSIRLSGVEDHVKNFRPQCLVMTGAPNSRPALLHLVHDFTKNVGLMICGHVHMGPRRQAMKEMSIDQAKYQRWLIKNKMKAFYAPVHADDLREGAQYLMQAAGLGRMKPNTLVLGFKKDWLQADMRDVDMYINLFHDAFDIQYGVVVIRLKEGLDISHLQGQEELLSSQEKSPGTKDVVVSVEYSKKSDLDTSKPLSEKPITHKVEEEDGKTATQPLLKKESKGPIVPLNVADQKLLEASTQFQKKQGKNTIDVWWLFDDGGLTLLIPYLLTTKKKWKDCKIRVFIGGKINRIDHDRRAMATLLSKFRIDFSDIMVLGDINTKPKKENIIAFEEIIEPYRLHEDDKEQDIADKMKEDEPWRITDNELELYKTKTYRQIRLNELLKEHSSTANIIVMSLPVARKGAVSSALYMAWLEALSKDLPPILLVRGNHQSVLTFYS
# Procedure: A group of control and CLT treated (33 μM, for 30 min) monolayers were treated with bumetanide (10 μM for 12 min).
# [6] = test system: apical membrane Cl- channels; assay: 125I efflux from T84 monolayers (apical Cl- channel activity)
# [7] = test system: intestinal fluid secretion induced by cholera toxin; design: species or system mouse (Balb/C); settings: mouse, in vivo
# [8] = test system: apical membrane Cl- channels; assay: Cl- conductance of the apical plasma membrane in basolaterally permeabilized T84 monolayers; type: cell-based, human
# [9] = test system: basolateral K+ channels
# [10] = carbachol (so in the source) stimulated, […]
# [11] = T84 cells, vs cells not treated with clotrimazole
# [12] = clotrimazole 33 μM, final 30 min of 90 min preincubation
compound,measurement,setting,value
OC(c1ccccc1)(c1ccccc1)c1ccccc1Cl [2-chlorophenyl-bis-phenyl methanol],inhibition of chloride secretion,[1],effective at inhibiting chloride secretion
same,inhibition of time course of K+ transport after carbachol,[2]; carbachol 100 μM (Ca++ agonist),Nearly identical results
same,inhibition of time course of K+ transport after forskolin,[2]; forskolin 10 μM (cAMP agonist),Nearly identical results
[Ba+2].[Cl-].[Cl-] [BaCl2],inhibition of Cl- secretory response to VIP (Isc),[1],strongly inhibited
same,inhibition of Cl- secretory response to carbachol (Isc),[1]; [10],no apparent affect
same,effect on K+ transport induced by carbachol,"[2]; carbachol 100 μM after forskolin, BaCl2 3 mM",no detectable effect
same,inhibition of cAMP-sensitive IK,"[2]; forskolin 10 μM elicited, BaCl2 3 mM basolateral",greater than 70%
C[C@@H]1[C@H](O)[C@@H](C)/C=C/C=C/C=C/C=C/C=C/C=C/C=C/[C@H](O[C@@H]2O[C@H](C)[C@@H](O)[C@H](N)[C@@H]2O)C[C@@H]2O[C@](O)(C[C@@H](O)C[C@@H](O)[C@H](O)CC[C@@H](O)C[C@@H](O)CC(=O)O[C@H]1C)C[C@H](O)[C@H]2C(=O)O [amphotericin B],increase in conductance on initial permeabilization,"[2]; amphotericin B, apical",49±19%
C[N+](C)(C)CCOC(N)=O [carbachol],effect on Isc after forskolin,[3]; carbachol 100 μM added after forskolin,no firther effect
same,increases in Isc and G in absence of K+,[2],not detectable
same,time to return of IscK and GK to baseline,[2]; after addition of carbachol,≤ 5 min
same,"carbachol-induced IscK, carbachol added after forskolin",[2]; after forskolin,180.7±15.7 μA/cm^2
same,"carbachol-induced IscK, carbachol added alone",[2]; carbachol alone,111.7±7.4 μA/cm^2
same,effect on K+ transport (Isc and G),[2],increased K+ currents
same,duration of agonist-induced changes in Isc,[2],short-lived
Clc1ccccc1C(c1ccccc1)(c1ccccc1)n1ccnc1 [clotrimazole],"apparent potency of inhibition, basolateral vs apical application",[1],greater when applied basolaterally than apically
same,inhibition by basolateral application alone compared with both sides,[1],almost as effective as incubation on both sides
same,inhibition of Cl- secretory response to VIP (Isc),[1],inhibited
same,inhibition of Cl- secretory response to carbachol (Isc),[1],inhibited
same,inhibition of Cl- secretory response to carbachol after pretreatment,[1],inhibited strongly
same,inhibition of Cl- secretory response to ionomycin after pretreatment,[1],inhibited strongly
same,inhibition of Cl- secretory response to thapsigargin after pretreatment,[1],inhibited strongly
same,inhibition of cAMP and Ca++ elicited Cl- secretion,[1],most potent inhibitor tested
same,inhibition of secretory response to 8Br-cAMP after pretreatment,[1],inhibited
same,inhibition of secretory response to VIP after pretreatment,[1],inhibited
same,inhibition of secretory response to forskolin after pretreatment,[1],inhibited
same,inhibition of synergistic response to VIP plus carbachol,[1],found to parallel the inhibition of secretion promoted by Ca^++ agonists alone
same,reversibility of inhibition of Cl- secretion,[1],96±2%
same,IC50,"[1]; Homo sapiens, T84, read-out: IC50, inhibition of secretory response to E. Coli heat-stabile toxin",15 µM
same,potentiation of Cl- secretory responses to either agonist,[1]; low doses (10^-7 or less),5-10%
same,inhibition of time course of forskolin induced Isc,"[3]; clotrimazole 30 μM, forskolin 10 μM",inhibited strongly
same,inhibition of Ca++ stimulated 86Rb efflux,[4]; [11],significantly inhibited
same,inhibition of baseline 86Rb efflux,[4]; [11],significantly inhibited
same,reduction of rate constant for VIP-stimulated 86Rb efflux,"[4]; VIP 5 μM, clotrimazole 33 μM",87%
same,86Rb loading of the cells,[4]; [12],did not alter
same,rate constant for VIP-stimulated 86Rb efflux,"[4]; clotrimazole-treated (vs 0.0465 untreated), n=2 in triplicate",0.0062 % uptake/minute
same,rate constant for thapsigargin-stimulated 86Rb efflux,"[4]; clotrimazole-treated (vs 0.048 untreated), n=2",0.011 % uptake/minute
same,inhibition of 86Rb efflux stimulated with thapsigargin,[4]; compared with VIP-stimulated efflux,inhibited to a similar degree
same,inhibition at 33 µM,"[5]; 0.5 h, read-out: reduction of total amount of 86Rb uptake",53.6 ± 5.8%
same,effect on fractional component of 86Rb uptake that was bumetanide-sensitive,"[5]; clotrimazole 33 μM, bumetanide 10 μM",no effect
same,inhibition of time course of K+ transport after carbachol,[2],significantly inhibited
same,inhibition of time course of K+ transport after forskolin,[2],significantly inhibited
same,rate constant for 125I efflux,"[6]; VIP-stimulated, clotrimazole-treated monolayers, n=2 in duplicate",0.0637 % uptake/minute
same,125I loading of the cells,[6]; [12],did not alter
same,"effect on time course of 125I efflux, VIP",[6]; monolayers treated with VIP,little or no effect
same,effect on intestinal secretion in the absence of cholera toxin,[7],no effect
same,reduction of intestinal fluid secretion induced by cholera toxin,[7],86%
same,effect on forskolin-stimulated Cl- conductances,[8]; symmetrical Cl- 142 mM,no detectable effect
same,effect on thapsigargin-stimulated Cl- conductances,[8]; symmetrical Cl- 142 mM,no detectable effect
Clc1ccc(COC(Cn2ccnc2)c2ccc(Cl)cc2Cl)cc1 (stereo not shown) [econazole],inhibition of chloride secretion,[1],effective at inhibiting chloride secretion
C=C[C@@]1(C)CC(=O)[C@]2(O)[C@@]3(C)[C@@H](O)CCC(C)(C)[C@@H]3[C@H](O)[C@H](OC(C)=O)[C@@]2(C)O1 [forskolin],increases in Isc and G in absence of K+,[2],not detectable
same,activation of currents at positive transepithelial voltages,[2],activate macroscopic outwardly rectified (mucosal to serosal) currents
same,effect on K+ transport (Isc and G),[2],brisk increase in K+ transport
same,duration of agonist-induced changes in Isc,[2],sustained
same,effect on Cl- conductance over baseline,"[8]; forskolin 10 μM basolateral, no clotrimazole",increased Cl- conductances significantly over baseline
same,reversal potential (I/V relations),[9],-40 mV
CC(=O)N1CCN(c2ccc(OCC3COC(Cn4ccnc4)(c4ccc(Cl)cc4Cl)O3)cc2)CC1 (stereo not shown) [ketoconazole],inhibition of chloride secretion,[1],effective at inhibiting chloride secretion
Clc1ccc(COC(Cn2ccnc2)c2ccc(Cl)cc2Cl)c(Cl)c1 (stereo not shown) [miconazole],inhibition of chloride secretion,[1],effective at inhibiting chloride secretion
C/C=C(/C)C(=O)O[C@H]1C(C)=C2[C@H]([C@@H]1OC(=O)CCCCCCC)[C@@](C)(OC(C)=O)C[C@H](OC(=O)CCC)[C@@]1(O)[C@H]2OC(=O)[C@@]1(C)O [thapsigargin],activation of currents at positive transepithelial voltages,[2],activate macroscopic outwardly rectified (mucosal to serosal) currents
same,reversal potential (I/V relations),[9],-40 mV
charybdotoxin,inhibition of Cl- secretory response to VIP (Isc),[1],minimal affects
same,inhibition of Cl- secretory response to carbachol (Isc),[1]; [10],strongly inhibited
same,effect on K+ transport induced by subsequent forskolin,[2]; charybdotoxin 100 nM,no detectable effect
same,inhibition of carbachol-induced Ca++ IK,[2]; charybdotoxin 100 nM pretreatment,50%
